Experimental data from patent publication US20230235022A1, “NEUTROPHIL ELASTASE BINDING PEPTIDES AND COMPOSITIONS THEREOF” (CASE WESTERN RESERVE UNIVERSITY, priority 2020, published 2023).

How the values were obtained:
[1] = tested on: neutrophils; test: Neutrophil viability with free or encapsulated HCQ; type: cell-based
[2] = Lethality after intravenous administration of HCQ in mouse; type: in vivo
[3] = molecular target: RCL-derived NE binding peptide (NEBP)

Molecule | concentration at which neutrophil viability is affected [1] | lethality [2] | HPLC-based analysis of cleavage by NE [3]
CCN(CCO)CCCC(C)Nc1ccnc2cc(Cl)ccc12 (stereo not shown) [free HCQ, hydroxychloroquine] | ≥ 10^3 ng/ml | high lethality | –
mouse neutrophil elastase (m-NE) (protein) IVGGRPARPHAWPFMASLQRRGGHFCGATLIARNFVMSAAHCVNGLNFRSVQVVLGAHDLRRQERTRQTFSVQRIFENGFDPSQLLNDIVIIQLNGSATINANVQVAQLPAQGQGVGDRTPCLAMGWGRLGTNRPSPSVLQELNVTVVTNMCRRRVNVCTLVPRRQAGICFGDSGGPLVCNNLVQGIDSFIRGGCGSGLYPDAFAPVAEFADWINSIIRSHNDHLLTHPKDREGRTN | – | – | such peptides are not cleaved by NE
human neutrophil elastase (h-NE) (protein) IVGGRRARPHAWPFMVSLQLRGGHFCGATLIAPNFVMSAAHCVANVNVRAVRVVLGAHNLSRREPTRQVFAVQRIFENGYDPVNLLNDIVILQLNGSATINANVQVAQLPAQGRRLGNGVQCLAMGWGLLGRNRGIASVLQELNVTVVTSLCRRSNVCTLVRGRQAGVCFGDSGSPLVCNGLIHGIASFVRGGCASGLYPDAFAPVAQFVNWIDSIIQ | – | – | such peptides are not cleaved by NE
